Biological target: T1, SUMO E1 SAE1 Q312A mutant (Homo sapiens, UniProt Q9UBE0+Q9UBT2, Q312A)
T1 construct: GST (N); made in house; host or cells: Escherichia coli BL21
T1 sequence (Q9UBE0 1-346 Q312A): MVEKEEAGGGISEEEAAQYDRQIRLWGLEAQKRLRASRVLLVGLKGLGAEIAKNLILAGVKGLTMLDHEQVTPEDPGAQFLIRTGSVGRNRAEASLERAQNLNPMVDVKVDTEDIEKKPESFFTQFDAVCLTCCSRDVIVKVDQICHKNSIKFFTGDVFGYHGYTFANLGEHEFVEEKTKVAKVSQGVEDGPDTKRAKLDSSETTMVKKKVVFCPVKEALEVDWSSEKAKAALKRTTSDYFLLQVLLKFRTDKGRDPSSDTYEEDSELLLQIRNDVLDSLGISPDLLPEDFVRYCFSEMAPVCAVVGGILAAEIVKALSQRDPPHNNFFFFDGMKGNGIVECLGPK
T1 sequence (Q9UBT2 1-640): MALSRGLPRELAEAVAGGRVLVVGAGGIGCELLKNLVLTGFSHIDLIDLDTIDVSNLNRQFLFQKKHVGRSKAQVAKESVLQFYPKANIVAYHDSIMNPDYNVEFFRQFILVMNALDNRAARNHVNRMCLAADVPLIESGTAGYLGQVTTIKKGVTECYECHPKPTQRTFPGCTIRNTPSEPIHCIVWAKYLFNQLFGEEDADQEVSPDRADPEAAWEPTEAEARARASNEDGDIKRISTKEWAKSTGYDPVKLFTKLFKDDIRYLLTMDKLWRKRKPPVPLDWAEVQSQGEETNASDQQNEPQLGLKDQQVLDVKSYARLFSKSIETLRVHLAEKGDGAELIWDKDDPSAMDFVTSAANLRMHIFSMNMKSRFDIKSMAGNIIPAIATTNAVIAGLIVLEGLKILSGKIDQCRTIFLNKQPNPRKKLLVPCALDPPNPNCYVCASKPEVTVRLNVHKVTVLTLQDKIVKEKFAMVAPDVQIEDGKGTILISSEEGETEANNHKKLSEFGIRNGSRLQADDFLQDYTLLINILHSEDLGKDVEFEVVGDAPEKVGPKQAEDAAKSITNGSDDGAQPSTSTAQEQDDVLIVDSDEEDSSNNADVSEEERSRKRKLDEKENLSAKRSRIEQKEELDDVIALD
Assay: SUMO E1 activity assays with SAE1 Q312A mutant
Format: biochemical
Method: Figure 3 SUMO-specific activating enzyme, E1, is a direct target of N106. Mechanism of action of N106 on individual steps in the SUMOylation cascade in vitro. (a) Inorganic pyrophosphate resulting from ATP hydrolysis in E1-catalysed SUMO-1 activation in the presence of increasing concentration of N106 compound was assessed by fluorogenic pyrophosphate assay kit. Recombinant human SUMO-specific E1 (0.05 μM), human Ubc9 (0.25 μM), human SUMO-1 (12.5 μM) and ATP (1 mM) were incubated with increasing concentration of N106 for 30 min at 37 °C and quantified using a fluorescence microplate reader. (b) The SAE2-SUMO-1 conjugation was detected followed by western blotting with anti-SAE2 antibodies. SUMO E1 (0.05 μM), SUMO-1 (12.5 μM) and ATP (1 mM) were co-incubated with increasing concentration of N106 for 30 min at 37 °C. The reaction mixtures were separated on 7.5% SDS–PAGE gel under non-reducing conditions. (c) E2-SUMO-1 conjugation was visualized by western blotting with anti-Ubc9 antibody. SUMO E1 (0.05 μM), Ubc9 (0.25 μM), SUMO-1 (12.5 μM) and ATP (1 mM) were incubated without or with increasing concentration of N106 for 30 min at 37 °C. […] (e) ATP hydrolytic activity of WT and mutant SUMO E1 are determined. (f) The E1-SUMO-1 conjugation was detected followed by western blot analysis with anti-SAE2 antibody. *The SAE2-SUMO-1 conjugated bands. […]

SMILES: COc1ccc(-c2nnc(Nc3nc4c(OC)cccc4s3)o2)cc1 [Compound N106, N-(4-methoxybenzo[d]thiazol-2-yl)-5-(4-methoxyphenyl)-1,3,4-oxadiazol-2-amine]
- ATP hydrolysis activity with N106, compared with wild-type protein (Q312A mutant): significantly lower
- SUMO E1-SUMO and SUMO E2-SUMO conjugations in the presence of N106, compared with WT (Q312A mutant SAE1): weaker

Reference: paper PMC4467461, “Small-molecule activation of SERCA2a SUMOylation for the treatment of heart failure” (Nature Communications, 2015)
